US20220330549A1, “USE OF N-BENZYLBENZAMIDE-BASED COMPOUND AS HERBICIDE” (Northwest A&F University, priority 2020, published 2022)

Experiments:
Type in all cases: in vivo
Barnyard grass [1] = assay: Herbicidal activity test for indoor pre-emergence soil treatment; parameters: key: level 1-9; higher = more weed remaining vs blank control; conditions: 150 g a.i./ha, visual inspection 21 days after treatment
Method in brief: (§1)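 Pre-emergence test following NY/T 1155.3-2006: weed seeds were sown in moistened neutral sandy loam (≤2% organic matter) and covered with 0.5–2.0 cm of soil. After 24 h, the soil was sprayed with a 10% EC diluted in water at 150 g(a.i.)/ha. Damage was scored visually on a 1–9 scale at 21 days.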

Piemarker [2] = assay: as above; parameters: key: level 1-9; higher = more weed remaining vs blank control; conditions: 150 g a.i./ha, visual inspection 21 days after treatment
Method in brief: as §1

green bristlegrass [3] = assay: as above; parameters: key: level 1-9; higher = more weed remaining vs blank control; conditions: 150 g a.i./ha, visual inspection 21 days after treatment
Method in brief: as §1

Amaranthus retroflexus [4] = assay: as above; parameters: key: 1-9 levels; higher = more weed remaining vs blank control; conditions: 150 g a.i./ha, visual inspection 21 days after treatment
Method in brief: as §1

Digitaria sanguinalis [5] = assay: as above; parameters: key: 1-9 levels; higher = more weed remaining vs blank control; conditions: 150 g a.i./ha, visual inspection 21 days after treatment
Method in brief: as §1

Humulus scandens [6] = assay: as above; conditions: 150 g a.i./ha, visual inspection 21 days after treatment
Method in brief: as §1

Amaranthus retroflexus [7] = assay: Herbicidal activity test for indoor post-emergence spraying on stems and leaves; parameters: key: grade level by weed remaining vs blank control, e.g. 5 = 10.1-15%; conditions: 150 g a.i./ha, visual inspection 21 days after treatment
Method in brief: (§2)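 Post-emergence stem and leaf spray in an indoor test following NY/T 1155.4-2006, with weeds sown and grown in a greenhouse. Effect scored visually 21 days after treatment as graded levels, each level set by the percentage of weed remaining relative to the blank control area.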

Barnyard grass [8] = assay: as above; parameters: key: grade level by weed remaining vs blank control, e.g. 5 = 10.1-15%; conditions: 150 g a.i./ha, visual inspection 21 days after treatment
Method in brief: as §2

Digitaria sanguinalis [9] = assay: as above; parameters: key: grade level by weed remaining vs blank control, e.g. 5 = 10.1-15%; conditions: 150 g a.i./ha, visual inspection 21 days after treatment
Method in brief: as §2

Humulus scandens [10] = assay: as above; parameters: key: grade level by weed remaining vs blank control, e.g. 5 = 10.1-15%; conditions: 150 g a.i./ha, visual inspection 21 days after treatment
Method in brief: as §2

Piemarker [11] = assay: as above; parameters: key: grade level by weed remaining vs blank control, e.g. 5 = 10.1-15%; conditions: 150 g a.i./ha, visual inspection 21 days after treatment
Method in brief: as §2

green bristlegrass [12] = assay: as above; parameters: key: grade level by weed remaining vs blank control, e.g. 5 = 10.1-15%; conditions: 150 g a.i./ha, visual inspection 21 days after treatment
Method in brief: as §2

Broadleaf weed = assay: Post-emergence herbicidal activity test in a paddy field; parameters: key: level scale; higher level = more weed left vs blank control; conditions: 150 g a.i./ha (penoxsulam control 250 g(a.i.)/h)
Method in brief: (§3)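 Efficacy was visually estimated 15 and 30 days after spraying, grading weed coverage relative to an untreated neighbouring plot (level 2 = 0 to 2.5%, level 9 = 67.6 to 100%). Treatments were 150 g(a.i.)/ha from 10% emulsifiable concentrates applied at the 4-5 leaf rice stage, four repeats of 50 m^2 each.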

Cyperaceae = assay: as above; parameters: key: level scale; higher level = more weed left vs blank control; conditions: 150 g a.i./ha (penoxsulam control 250 g(a.i.)/h)
Method in brief: as §3

Gramineae = assay: as above; parameters: key: level scale; higher level = more weed left vs blank control; conditions: 150 g a.i./ha (penoxsulam control 250 g(a.i.)/h)
Method in brief: as §3

Acalypha australis = assay: Field test for weed control in a corn field; conditions: 150 g a.i./ha, after treatment
Method in brief: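 Post-emergence field trial in a corn field following GB/T 17980.42-2000. Test compounds were formulated as 10% emulsifiable concentrates, diluted in water, and sprayed at 150 g(a.i.)/ha when corn had 2 to 5 leaves, with 4 replicates on 20 m^2 plots. Mesotrione 25% oil dispersion served as the control agent. Weed control was scored on a 1-9 scale.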

Amaranthus retroflexus [13] = assay: Field test for weed control in a corn field; conditions: 150 g a.i./ha, 30 days after treatment
Method in brief: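 Field efficacy trial in a corn field following GB/T 17980.42-2000. Test compounds were formulated as 10% emulsifiable concentrates, diluted in water and sprayed post-emergence when corn had 2 to 5 leaves. Each treatment covered 20 m^2 with 4 replicates. A 25% mesotrione oil dispersion served as control. Damage to Amaranthus retroflexus was rated on a 1-9 scale against untreated blank plots.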

Barnyard grass [14] = assay: Field test for weed control in a corn field; conditions: 150 g a.i./ha, 30 days after treatment
Method in brief: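 Corn-field efficacy trial following GB/T 17980.42-2000. Test compounds were formulated as 10% emulsifiable concentrates, diluted in water and sprayed post-emergence at 150 g(a.i.)/ha when corn had 2 to 5 leaves. Each treatment was replicated 4 times on 20 m^2 plots. Barnyard grass control was rated on a 1-9 damage scale.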

Chenopodium album = assay: Field test for weed control in a corn field; conditions: 150 g a.i./ha, after treatment
Method in brief: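 A corn-field efficacy trial following GB/T 17980.42-2000 tested post-emergence control of Chenopodium album. Test compounds formulated as 10% emulsifiable concentrates were diluted in water and sprayed at 150 g(a.i.)/ha when the corn had 2 leaves to 5 leaves, on 20 m^2 plots with 4 replicates. Herbicidal activity was rated on a 1-9 scale by damage symptoms and severity.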

Convolvulus arvensis = assay: Field test for weed control in a corn field; conditions: 150 g a.i./ha, after treatment
Method in brief: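 Field trial of weed control against Convolvulus arvensis in corn, run following GB/T 17980.42-2000. Test agents were formulated as 10% emulsifiable concentrates and sprayed in water at 150 g(a.i.)/ha when corn plants had 2 to 5 leaves. Each treatment was replicated 4 times on 20 m^2 plots, and 25% mesotrione oil dispersion served as the control agent.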

Digitaria sanguinalis [15] = assay: Field test for weed control in a corn field; conditions: 150 g a.i./ha, after treatment
Method in brief: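 Field trial in a corn field following GB/T 17980.42-2000. Test compounds were formulated as 10% emulsifiable concentrates, diluted in water and sprayed post-emergence at 150 g(a.i.)/ha when corn had 2 to 5 leaves, with 4 replicates on 20 m^2 plots. Control of Digitaria sanguinalis was scored on a 1-9 scale based on weed damage relative to the untreated blank area.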

Portulaca oleracea = assay: Field test for weed control in a corn field; conditions: 150 g a.i./ha, after treatment
Method in brief: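 Field efficacy trial in corn following GB/T 17980.42-2000. Test compounds were prepared as 10% emulsifiable concentrates, diluted in water, and sprayed at 150 g(a.i.)/ha when corn had 2 to 5 leaves after sowing. Plots were 20 m^2 with 4 replicates per treatment. Herbicidal activity was scored on a 1-9 scale from weed damage symptoms and severity.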

Solanum nigrum = assay: Field test for weed control in a corn field; conditions: 150 g a.i./ha, 30 days after treatment
Method in brief: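 Post-emergence weed control was tested in a corn field following GB/T 17980.42-2000. Compounds were made into 10% emulsifiable concentrates, diluted in water and sprayed at 150 g(a.i.)/ha when corn had 2 to 5 leaves after sowing, in 20 m^2 plots with 4 replicates. Effects on Solanum nigrum were graded on a 1-9 scale relative to the blank control area.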

goosegrass = assay: Field test for weed control in a corn field; conditions: 150 g a.i./ha, after treatment
Method in brief: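 Weed control efficacy against goosegrass was tested in a corn field following GB/T 17980.42-2000. Compounds formulated as 10% emulsifiable concentrates were diluted in water and sprayed post-emergence at 150 g(a.i.)/ha when corn had 2 to 5 leaves, with 4 replicates of 20 m^2 plots. Herbicidal activity was rated on a 1-9 scale by damage symptoms and severity.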

green bristlegrass [16] = assay: Field test for weed control in a corn field; conditions: 150 g a.i./ha, after treatment
Method in brief: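 Post-emergence weed control was tested in a corn field following GB/T 17980.42-2000. When the corn had 2 leaves to 5 leaves after sowing, 10% emulsifiable concentrates diluted in water were sprayed at 150 g(a.i.)/ha on 20 m^2 plots, four replicates per treatment. Effects on green bristlegrass were scored on a 1-9 damage scale relative to the blank control area.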

nutgrass flatsedge = assay: Field test for weed control in a corn field; conditions: 150 g a.i./ha, after treatment
Method in brief: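 A corn field efficacy trial following GB/T 17980.42-2000 assessed post-emergence control of nutgrass flatsedge. Test compounds were formulated as 10% emulsifiable concentrates, diluted in water, and sprayed at 150 g(a.i.)/ha when the corn had 2 to 5 leaves. Each treatment had 4 replicates on 20 m^2 plots. Herbicidal activity was graded on a 1-9 scale by damage symptoms and severity.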

Structure (SMILES): COc1ccc(OC)c(C(=O)NCc2cc(F)cc(F)c2)c1 [Compound A24]
- Herbicidal Activity Barnyard grass (Barnyard grass [1]): 1
- Herbicidal Activity Piemarker (Piemarker [2]): 1
- Herbicidal Activity Green bristlegrass (green bristlegrass [3]): 1
- Herbicidal Activity Amaranthus retroflexus (Amaranthus retroflexus [4]): 1
- Herbicidal Activity Digitaria sanguinalis (Digitaria sanguinalis [5]): 1
- Herbicidal Activity Humulus scandens (Humulus scandens [6]): 1
- Herbicidal Activity Amaranthus retroflexus (Amaranthus retroflexus [7]): 1
- Herbicidal Activity Barnyard grass (Barnyard grass [8]): 1
- Herbicidal Activity Digitaria sanguinalis (Digitaria sanguinalis [9]): 1
- Herbicidal Activity Humulus scandens (Humulus scandens [10]): 1
- Herbicidal Activity Piemarker (Piemarker [11]): 1
- Herbicidal Activity Green bristlegrass (green bristlegrass [12]): 1
- Herbicidal activity 15 days after treatment Broadleaf weed (Broadleaf weed): 1
- Herbicidal activity 30 days after treatment Broadleaf weed (Broadleaf weed): 1
- Herbicidal activity 15 days after treatment Cyperaceae (Cyperaceae): 1
- Herbicidal activity 30 days after treatment Cyperaceae (Cyperaceae): 1
- Herbicidal activity 15 days after treatment Gramineae (Gramineae): 1
- Herbicidal activity 30 days after treatment Gramineae (Gramineae): 1
- Post-emergence weed control effect, Acalypha australis (Acalypha australis): 3 (equivalent to 2.6 to 5% of the weed in the blank control area)
- Post-emergence weed control effect, Amaranthus retroflexus (Amaranthus retroflexus [13]): 1
- Post-emergence weed control effect, Barnyard grass (Barnyard grass [14]): 1
- Post-emergence weed control effect, Chenopodium album (Chenopodium album): 1
- Post-emergence weed control effect, Convolvulus arvensis (Convolvulus arvensis): 1
- Post-emergence weed control effect, Digitaria sanguinalis (Digitaria sanguinalis [15]): 2 (equivalent to 0 to 2.5% of the weed in the blank control area)
- Post-emergence weed control effect, Portulaca oleracea (Portulaca oleracea): 1
- Post-emergence weed control effect, Solanum nigrum (Solanum nigrum): 2 (equivalent to 0 to 2.5% of the weed in the blank control area)
- Post-emergence weed control effect, Goose grass (goosegrass): 2 (equivalent to 0 to 2.5% of the weed in the blank control area)
- Post-emergence weed control effect, Green bristlegrass (green bristlegrass [16]): 1
- Post-emergence weed control effect, Nutgrass flatsedge (nutgrass flatsedge): 3 (equivalent to 2.6 to 5% of the weed in the blank control area)

Structure (SMILES): COc1ccc(OC)c(C(=O)NCc2cc(F)cc(Cl)c2)c1 [Compound A28]
- Herbicidal Activity Barnyard grass (Barnyard grass [1]): 1
- Herbicidal Activity Piemarker (Piemarker [2]): 1
- Herbicidal Activity Green bristlegrass (green bristlegrass [3]): 1
- Herbicidal Activity Amaranthus retroflexus (Amaranthus retroflexus [4]): 1
- Herbicidal Activity Digitaria sanguinalis (Digitaria sanguinalis [5]): 1
- Herbicidal Activity Humulus scandens (Humulus scandens [6]): 2 (equivalent to 0 to 2.5% of the weed in the blank control area)
- Herbicidal Activity Amaranthus retroflexus (Amaranthus retroflexus [7]): 1
- Herbicidal Activity Barnyard grass (Barnyard grass [8]): 1
- Herbicidal Activity Digitaria sanguinalis (Digitaria sanguinalis [9]): 1
- Herbicidal Activity Humulus scandens (Humulus scandens [10]): 1
- Herbicidal Activity Piemarker (Piemarker [11]): 1
- Herbicidal Activity Green bristlegrass (green bristlegrass [12]): 1
- Herbicidal activity 15 days after treatment Broadleaf weed (Broadleaf weed): 1
- Herbicidal activity 30 days after treatment Broadleaf weed (Broadleaf weed): 1
- Herbicidal activity 15 days after treatment Cyperaceae (Cyperaceae): 2 (equivalent to 0 to 2.5% of the weed in the blank control area)
- Herbicidal activity 30 days after treatment Cyperaceae (Cyperaceae): 1
- Herbicidal activity 15 days after treatment Gramineae (Gramineae): 2 (equivalent to 0 to 2.5% of the weed in the blank control area)
- Herbicidal activity 30 days after treatment Gramineae (Gramineae): 1
- Post-emergence weed control effect, Acalypha australis (Acalypha australis): 2 (equivalent to 0 to 2.5% of the weed in the blank control area)
- Post-emergence weed control effect, Amaranthus retroflexus (Amaranthus retroflexus [13]): 1
- Post-emergence weed control effect, Barnyard grass (Barnyard grass [14]): 1
- Post-emergence weed control effect, Chenopodium album (Chenopodium album): 1
- Post-emergence weed control effect, Convolvulus arvensis (Convolvulus arvensis): 1
- Post-emergence weed control effect, Digitaria sanguinalis (Digitaria sanguinalis [15]): 2 (equivalent to 0 to 2.5% of the weed in the blank control area)
- Post-emergence weed control effect, Portulaca oleracea (Portulaca oleracea): 1
- Post-emergence weed control effect, Solanum nigrum (Solanum nigrum): 2 (equivalent to 0 to 2.5% of the weed in the blank control area)
- Post-emergence weed control effect, Goose grass (goosegrass): 2 (equivalent to 0 to 2.5% of the weed in the blank control area)
- Post-emergence weed control effect, Green bristlegrass (green bristlegrass [16]): 1
- Post-emergence weed control effect, Nutgrass flatsedge (nutgrass flatsedge): 2 (equivalent to 0 to 2.5% of the weed in the blank control area)
